According to article PMC3506129 (Journal of Medicinal Chemistry, 2012):
Read-outs that look alike come from different tables or passages of the source. Marks after values point to notes of the source that are not given here.

Key:
CHK2 = CHK2 (Homo sapiens, UniProt O96017); assay: CHK2 DELFIA kinase assay; type: biochemical; settings: data not shown
CDK1 = CDK1 (Homo sapiens, UniProt P06493); settings: data not shown
[1] = test system: CHK1 S296 autophosphorylation in SW620 human colon cancer xenografts; assay: Gemcitabine-induced CHK1 phosphorylation in SW620 xenografts; type: in vivo, mouse; settings: single po dose at MTD (20: 160, 26: 300 mg/kg); 12 h after gemcitabine
[2] = Plasma and tumor drug levels in SW620 xenograft-bearing mice; type: in vivo, mouse; settings: po dose at MTD
121 kinases = settings: against 89 out of the 121 enzymes, screen at 10 μM
[3] = test system: SW620 human colon cancer xenograft; settings: SW620, q4d × 3, gemcitabine 100 mg/kg iv + 26 75 mg/kg po; cited from earlier work
[4] = test system: pS296 CHK1 in HT29 colon tumor xenografts; settings: single doses 100–300 mg/kg po; cited from earlier work
[5] = test system: HT29 human colon cancer xenograft; settings: cited from earlier work; for tumor growth delay (days), 26: HT29, q7d × 3, 26 75 mg/kg po alone
[6] = test system: panel of 140 representative kinases; assay: Radiometric kinase panel summary, 1 μM; type: biochemical, human; settings: of 140 kinases
[7] = test system: Calu6 human non-small cell lung cancer xenograft; settings: Calu6, q7d × 3, gemcitabine 100 mg/kg iv + 26 75 mg/kg po; cited from earlier work
AMPK = assay: radiometric kinase profiling; type: biochemical; settings: 1 μM
CaCo-2 permeability = type: in vitro ADME; settings: human
[8] = 10 mg/kg iv, 6 h, 9 normalized from 5 mg/kg, 24 from 1 mg/kg, 20 from full PK

Sequence of CHK2 (O96017 whole entry, species assumed): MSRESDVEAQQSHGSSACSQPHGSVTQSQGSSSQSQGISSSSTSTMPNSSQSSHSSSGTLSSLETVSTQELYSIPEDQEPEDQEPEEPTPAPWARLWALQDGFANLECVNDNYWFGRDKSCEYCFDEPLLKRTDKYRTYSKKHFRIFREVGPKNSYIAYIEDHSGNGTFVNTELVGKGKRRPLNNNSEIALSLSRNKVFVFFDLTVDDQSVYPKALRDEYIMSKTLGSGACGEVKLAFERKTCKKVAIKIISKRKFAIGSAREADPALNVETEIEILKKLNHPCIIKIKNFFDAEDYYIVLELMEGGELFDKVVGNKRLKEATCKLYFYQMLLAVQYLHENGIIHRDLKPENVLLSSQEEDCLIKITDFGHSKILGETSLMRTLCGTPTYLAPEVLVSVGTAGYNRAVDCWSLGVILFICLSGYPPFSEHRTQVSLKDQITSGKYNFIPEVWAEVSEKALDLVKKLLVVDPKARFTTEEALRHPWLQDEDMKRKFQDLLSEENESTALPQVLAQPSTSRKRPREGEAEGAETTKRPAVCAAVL
Sequence of CDK1 (P06493 whole entry, looked up): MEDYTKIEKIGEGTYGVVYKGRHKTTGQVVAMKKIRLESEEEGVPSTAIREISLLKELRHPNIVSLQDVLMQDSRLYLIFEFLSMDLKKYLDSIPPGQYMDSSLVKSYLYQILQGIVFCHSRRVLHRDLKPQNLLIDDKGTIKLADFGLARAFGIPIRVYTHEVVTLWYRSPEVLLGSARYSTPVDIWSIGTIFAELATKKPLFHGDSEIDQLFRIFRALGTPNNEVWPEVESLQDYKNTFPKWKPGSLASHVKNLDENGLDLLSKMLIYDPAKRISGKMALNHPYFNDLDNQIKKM

COC(=O)c1cnc(Nc2cnc(C#N)c(O[C@@H]3CCNC3)n2)cc1N(C)C [Compound 10]
selectivity for CHK1 inhibition over CHK2 (CHK2): greater than 100 fold
selectivity for CHK1 inhibition over CDK1 (CDK1): greater than 100 fold

CNc1cc(Nc2cnc(C#N)c(O[C@H](C)CN(C)C)n2)ncc1-c1cnn(C)c1 [Compound 20, (R)-3-((1-(Dimethylamino)propan-2-yl)oxy)-5-((5-(1-methyl-1H-pyrazol-4-yl)-4-(methylamino)pyridin-2-yl)amino)pyrazine-2-carbonitrile]
inhibition of CHK1 S296 autophosphorylation, 12 h [1]: less powerful effect
mouse plasma level iv, 1 h (10 mg/kg iv, 1 h, 9 normalized from 5 mg/kg, 24 from 1 mg/kg, 20 from full PK): 910 (±23) ^h nM
mouse plasma level iv, 6 h [8]: 45 (±10) ^h nM
mouse plasma level po, 1 h (10 mg/kg po, 1 h): 555 (±82) ^h nM
mouse plasma level po, 6 h (10 mg/kg po, 6 h): 57 (±7) ^h nM
fall in drug concentration between 6 and 12 h [2]: ca. 20 fold

COc1cc(Nc2cnc(C#N)c(O[C@H](C)CN(C)C)n2)ncc1-c1cnn(C)c1 [Compound 26, (R)-3-((1-(Dimethylamino)propan-2-yl)oxy)-5-((4-methoxy-5-(1-methyl-1H-pyrazol-4-yl)pyridin-2-yl)amino)pyrazine-2-carbonitrile]
selectivity for CHK1 (121 kinases): > 1000 fold
inhibition of CHK1 S296 autophosphorylation, 12 h [1]: robust inhibition
enhancement in plasma levels at the 1 h time point relative to 20 (10 mg/kg, 1 h): 2 fold
fall in drug concentration between 6 and 12 h [2]: 2–3 fold
tumor growth delay (days), combination [3]: 6.0 (±2.4) days
duration of inhibition of gemcitabine-induced pS296 CHK1 [4]: up to 24 h
tumor growth delay (days), 26 ([5]; gemcitabine experiment): –1.8 (±2.1) days
tumor growth delay (days), 26 ([5]; irinotecan experiment): 0.30 (±1.4) days
tumor growth delay (days), combination ([5]; HT29, q7d × 3, gemcitabine 100 mg/kg iv + 26 75 mg/kg po at 24 and 48 h): 11.4 (±3.3) days
tumor growth delay (days), combination ([5]; HT29, q7d × 3, irinotecan 12.5 mg/kg i.p. + 26 75 mg/kg po): 13.5 (±2.4) days
number of enzymes strongly inhibited (>80%) [6]: 7
tumor growth delay (days), combination [7]: 15.9 (±2.5) days
inhibition (strongly inhibited) (AMPK): > 80%

CNc1cc(Nc2cnc(C#N)c(O[C@H](C)CN(C)C)n2)ncc1C(F)(F)F [Compound 15]
efflux ratio (CaCo-2 permeability): > 6

CNc1cc(Nc2cnc(C#N)c(O[C@@H]3CCN(C)C3)n2)ncc1-c1cnn(C)c1 [Compound 24]
mouse plasma level iv, 6 h [8]: <20 ^i, ^j nM
